These results are taken from patent US4720458A, “Heat sensitive bacterial alkaline phosphatase” (priority 1983, dated 1988).

Experiment [1] has as its system HK-47 alkaline phosphatase (APase) from Antarctic psychrophilic marine bacterium strain HK-47 (ATCC 39469). Here is the method: APase activity was routinely assayed at 25° C. for 30 min in 100 μl reaction mixture containing 2 mM p-nitrophenyl phosphate, 5 mM CaCl2, 0.1M CAPS-NaOH buffer pH 9.5. The reaction was stopped by adding 300 μl of 13% (W/V) EDTA-1N NaOH to the reaction mixture. Control mixtures were similarly prepared, except that 13% EDTA-1N NaOH was added before the enzyme activity was assayed. APase activity was measured as the difference in absorbance at 410 nm between samples and control. One unit of APase activity is expressed as 1 micromole of p-nitrophenol (pNp) liberated per minute at 25° C. under the assay conditions. Protein concentration was determined by the Bio-Rad protein assay kit. Bovine serum albumin (BSA) was used as the standard. Homogeneity of the APase was examined by polyacrylamide gel electrophoresis and Bio-Rad (Bio-Rad laboratories, Richmond, CA.) silver stain.

In experiment [2] the target is E. coli alkaline phosphatase (APase) (Escherichia coli, UniProt P00634). Description: E. coli APase inactivation by EDTA (comparison enzyme). The class given is biochemical. Conditions: read-out: EDTA concentration giving 50% inactivation of E. coli APase.
E. coli alkaline phosphatase (APase), sequence (P00634 22-471): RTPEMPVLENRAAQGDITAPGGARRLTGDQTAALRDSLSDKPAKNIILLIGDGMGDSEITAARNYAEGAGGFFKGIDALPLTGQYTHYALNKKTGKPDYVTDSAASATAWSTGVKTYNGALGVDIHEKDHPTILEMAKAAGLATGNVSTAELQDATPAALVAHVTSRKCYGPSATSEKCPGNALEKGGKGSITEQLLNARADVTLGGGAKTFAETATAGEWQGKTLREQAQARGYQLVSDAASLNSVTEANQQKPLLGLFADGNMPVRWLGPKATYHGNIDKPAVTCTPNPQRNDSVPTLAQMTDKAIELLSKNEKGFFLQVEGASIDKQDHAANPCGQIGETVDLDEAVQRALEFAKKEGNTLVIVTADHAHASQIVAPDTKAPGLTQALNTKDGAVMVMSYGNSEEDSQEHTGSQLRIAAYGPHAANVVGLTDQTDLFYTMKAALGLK

In the case of `O=C(O)CN(CCN(CC(=O)O)CC(=O)O)CC(=O)O` [EDTA], the “inhibition of HK-47 APase activity” value in experiment [1] (at 1 mM EDTA) is listed as approximately 100%. The “sensitivity to EDTA of HK-47 APase relative to E. coli APase” value in experiment [1] (ratio of the 50% inhibition concentrations, E. coli vs HK-47) is 100 fold. The IC50 in experiment [1] (read-out: EDTA concentration inhibiting HK-47 APase activity 50%, HK-47 APase, 'as little as') stood at 0.1 mM; in experiment [2], 10 mM.
